Measurements from PubChem BioAssay AID651884 (Southern Research Specialized Biocontainment Screening …, 2012).

These molecules were tested on VEEV TC-83 infected cells, viral CPE inhibition (assay: Cell based counter screen, viral CPE inhibition, VEEV strain KU V3526 (AID 651884)).
`CCN1CCN(Cc2nc3ccc([N+](=O)[O-])cc3c(=O)n2-c2ccccc2F)CC1` was tested, and the IC50 was 325 nM.
For `COc1ccc(NC(=O)c2cc([N+](=O)[O-])ccc2N=C2CN(C)CCN2C)cc1`, the IC50 was 17 nM.
`CN1CCN(C)C(=Nc2ccc([N+](=O)[O-])cc2C(=O)Nc2ccccc2)C1` showed an IC50 of 19.4 nM.
With `CCN1CCN(C)CC1=Nc1ccc([N+](=O)[O-])cc1C(=O)Nc1ccccc1` the IC50 was 20 nM.
